The values below are quoted from earlier work in the CATMoS acute toxicity set (Mansouri et al. 2021).

“And” between values parts separate entries of the source, which are not always exact repeats. Equal entries are not always repeated.

A short description of the data set: rat acute oral toxicity. The following applies: in vivo.
As to `CC(N)C(OCCN(C(C)C)C(C)C)C(=O)c1ccccc1` (centres undefined), the LD50 was 238 mg/kg.

With `Oc1ccc(Nc2ccccc2)cc1`, the LD50 was 3300 mg/kg.

Consider `COc1ccc(C(Oc2ccccc2)C2=NCCCN2)cc1F` (centres undefined), for which the LD50 was 1000 mg/kg.

Regarding `CC(=O)Nc1ccc(C)c(NS(=O)(=O)C(F)(F)F)c1`, the 50% lethal dose (LD50) was 2580 mg/kg.

`ClCCOCCOCCCl`: the LD50 was 250 mg/kg.

For the compound `COC(=N)N`, the LD50 was 3700 mg/kg.

As for `CCCCCCCCCCCCOC(=O)Cc1ccc(N(CCCl)CCCl)cc1`, the LD50 was 72 mg/kg.

On to `Cc1ccc(C)n1Nc1ccc(N2CCOCC2)nn1`, for which the LD50 was 2250 mg/kg.

As for `C1CC2OC2CC1C1CO1` (centres undefined), the LD50 is 2830 mg/kg.

For `SCc1ccccc1`, the LD50 is 493 mg/kg.

As to `CCC1(c2ccccc2)CCNC1=O` (centres undefined), the LD50 was 990 mg/kg.

Regarding `c1ccc(Oc2nncc3ccccc23)cc1`, the LD50 is 1000 mg/kg.

Regarding `CC1=CC(=O)/C(=C(/C)O)C(=O)O1`, the LD50 is 500 mg/kg.

Take `CCCCCCCCCCCCCCCC(=O)OC/C=C(C)/C=C/C=C(C)/C=C/C1=C(C)CCCC1(C)C`: the LD50 is 7910 mg/kg.

For the compound `CC(=O)Nc1ccc(N=NN(C)C)cc1`, the LD50 was 510 mg/kg.

In the case of `C[C@@H]1C[C@H]2[C@@H]3C[C@H](F)C4=CC(=O)C=C[C@]4(C)[C@H]3[C@@H](O)C[C@]2(C)[C@H]1C(=O)CO`, the LD50 was 245 mg/kg.

Turning to `CC(C)CCOC=O`, the LD50 is 9840 mg/kg.

As to `Nc1ccc(OP(=O)(Oc2ccc(N)cc2)Oc2ccc(N)cc2)cc1`, the LD50 was 138 mg/kg.

As to `COC(=O)N(CCCl)N=O`, the LD50 was 20 mg/kg.

Take `CC(C)OC(=O)COc1cc(Cl)c(Cl)cc1Cl`: the LD50 is 495 mg/kg.

With `COc1ccc2c(c1)-c1c(ccc(OC)c1O)CC(CCc1ccccc1)N(C)CC2` (centres undefined), the LD50 is 500 mg/kg.

`O=C(Nc1ccc(Nc2ccc(NC(=O)c3ccccc3)c3c2C(=O)c2ccccc2C3=O)c2c1C(=O)c1ccccc1C2=O)c1ccccc1`: the LD50 is 19300 mg/kg.

Turning to `NC(=O)Cc1cccc2ccccc12`, the LD50 is 1690 mg/kg.

As to `CNC(=O)Oc1cc(C)c(C)c(C)c1`, the LD50 was 178 mg/kg.

For the compound `O=C(Nc1ccc([N+](=O)[O-])cc1)OCc1cccnc1`, the LD50 was 14 mg/kg.

`O=C(O)Cc1ccccc1Nc1c(Cl)cc(Cl)c2ccccc12`: the median lethal dose (LD50) is 56.2 mg/kg.

Take `CCCCC(CC)COC(=O)c1ccccc1C(=O)OCc1ccccc1` (centres undefined): the LD50 is 60000 mg/kg.

Take `CCCCON=O`: the LD50 is 83 mg/kg.

With `c1ccc2cc(Nc3ccc(Nc4ccc5ccccc5c4)cc3)ccc2c1`, the LD50 is 4500 mg/kg.

With `CCOP(=S)(OCC)SCCl`, the LD50 is 7 mg/kg.

As to `CCCCC(CC)COP(=O)(OCC(CC)CCCC)OCC(CC)CCCC` (centres undefined), the LD50 is 37000 mg/kg.

As for `Cc1ccc(OCC(=O)N[C@@H]2C(=O)N3[C@@H]2SC(C)(C)[C@@H]3C(=O)O)cc1Cl`, the LD50 was 2250 mg/kg.

Consider `c1cc2c(c(NC3=NCCN3)c1)CCCC2`, for which the LD50 was 190 mg/kg.

For `CNC(=O)Oc1ccc(CC#N)cc1`, the LD50 was 511 mg/kg.

In the case of `CCOP(=O)(OCC)OC(=C(Cl)Cl)c1ccc(Cl)cc1Cl`, the LD50 is 30.2 mg/kg.

Regarding `COP(=S)(OC)SCC(=O)CNC(=O)Oc1cccc(C(C)C)c1`, the LD50 was 432 mg/kg.

Take `OCC1CCCCO1` (centres undefined): the LD50 was 3730 mg/kg.

For `O=NN1CCCCCCC1`, the LD50 was 283 mg/kg.

As to `CCCN(CCC)C(=O)C(Cc1ccc(OCCN(CC)CC)cc1)NC(=O)c1ccccc1` (centres undefined), the LD50 is 800 mg/kg and 1070 mg/kg.

For the compound `CN(C)c1cccc2nc3cccc([N+](=O)[O-])c3cc12`, the LD50 is 24 mg/kg.

For the compound `CCCN=C(NCCC)C(OCC)c1ccc(Cl)cc1` (centres undefined), the LD50 was 47 mg/kg.

Take `COc1c(O)c(Cl)c(Cl)c(Cl)c1Cl`: the LD50 is 1690 mg/kg.

For `CC(=O)OCCO`, the LD50 was 8250 mg/kg.

Turning to `CNC(=O)c1ccc(Cl)c(S(=O)(=O)NC)c1`, the LD50 was 1400 mg/kg.

As to `CCCCC1(COC(=O)CCC(=O)O)C(=O)N(c2ccccc2)N(c2ccccc2)C1=O`, the LD50 is 1700 mg/kg.

In the case of `COC(C=Cc1ccccc1)OC`, the 50% lethal dose (LD50) is 3700 mg/kg.

Regarding `CCOCCC(OCC)OCC`, the LD50 was 1600 mg/kg.

With `Nc1ccc([N+](=O)[O-])cc1Cl`, the LD50 was 6430 mg/kg.

In the case of `O=C1NC(=O)C2(c3ccc(Cl)cc3)CC12` (centres undefined), the LD50 was 1550 mg/kg.

`CCOC(=O)c1c(C)cc2c(CO)n[nH]c(=O)c2c1C`: the LD50 is 1750 mg/kg.

For the compound `OCCC1CCN(CCC=C2c3ccc(F)cc3Sc3ccc(C(F)(F)F)cc32)CC1`, the LD50 was 1.5 mg/kg.

With `FC(F)(F)c1nc2c(Cl)c(Br)c(Cl)c(Br)c2[nH]1`, the LD50 was 3.43 mg/kg.

`Cc1cc(Cl)cc(O)c1O`: the LD50 is 1410 mg/kg.

`CCC[C@]1(c2cccc(O)c2)CCN(C)C[C@@H]1C`: the LD50 was 887 mg/kg.

For `CC(=O)OCN(C)N=O`, the LD50 was 130 mg/kg.

Consider `O=C(OC1CC2NC(C1)C1OC21)C(CO)c1ccccc1` (centres undefined), for which the median lethal dose (LD50) was 3020 mg/kg.

Regarding `CC[C@@H](CO)NC(=O)[C@@H]1C=C2c3cccc4[nH]cc(c34)C[C@H]2N(C)C1`, the LD50 was 93 mg/kg.

For the compound `Nc1ncnc(Nc2cccc(Cl)c2)n1`, the LD50 is 400 mg/kg.

For `CN1CCN(C[C@H]2C(=O)Nc3ccccc3S[C@H]2c2ccccc2)CC1`, the LD50 was 830 mg/kg.

For `CCn1cc(C(O)CN(C)C)c2ccccc21` (centres undefined), the median lethal dose (LD50) was 80 mg/kg.

For the compound `Cc1cccc(OC(C)C)c1N(C)C(=O)CCl`, the LD50 is 950 mg/kg.

`O=S1(=O)CC(Cl)C(Cl)C1` (centres undefined): the LD50 is 482 mg/kg.

On to `O=c1oc2cc(Cl)ccc2n1CO`, for which the LD50 is 2800 mg/kg.

Regarding `Cc1c(C(=O)N(C)C)nnn1-c1ccccc1`, the LD50 is 500 mg/kg.

For `CC(=O)NO`, the LD50 was 4800 mg/kg.

In the case of `CCOP(=S)(OCC)Oc1cc(C)nc(N(C)C)n1`, the median lethal dose (LD50) was 125 mg/kg.

As to `CCC(C)C(CN(C)C)c1ccc(OC)c(Cl)c1` (centres undefined), the LD50 was 454 mg/kg.

`Cc1c(Nc2ccccc2C(=O)O)ccc(O)c1Cl`: the LD50 is 1850 mg/kg.

Consider `C=C(C)C(=O)OCCOCCOCCOC(=O)C(=C)C`, for which the LD50 was 10800 mg/kg.

In the case of `O=C(CCCN1CCN2Cc3[nH]c4ccccc4c3CC2C1)c1ccc(F)cc1` (centres undefined), the LD50 is 700 mg/kg.

Consider `CCN(CCNS(C)(=O)=O)c1ccc(N)c(C)c1`, for which the LD50 is 400 mg/kg.

`NCCc1ccc(O)c(O)c1`: the LD50 was 2860 mg/kg.

As to `O=C1NC2CCCCN2C12CCN(CCCN1c3ccccc3CCc3ccc(Cl)cc31)CC2` (centres undefined), the LD50 was 4910 mg/kg.

With `OC(CBr)C(O)C(O)C(O)CBr` (centres undefined), the LD50 is 1000 mg/kg.

For `O=NN1CCNCC1`, the LD50 is 2260 mg/kg.

With `CCOc1ccccc1N1CCN(CCCCc2ccc3c(c2)CCC(=O)N3)CC1`, the LD50 was 500 mg/kg.

Turning to `CCC(C)NC(=S)C(=S)NC(C)CC` (centres undefined), the LD50 was 6 mg/kg.

As for `COc1ccc2c(c1)OC(C)(C)C(c1ccccc1)=C2c1ccc(OCCO)cc1`, the LD50 is 500 mg/kg.

Take `CC(C)c1ccc2oc3nc(N)c(C(=O)O)cc3c(=O)c2c1`: the LD50 is 10000 mg/kg.

With `CCCCCCCCCCOc1c(OC)cc(C(N)=O)cc1OC`, the LD50 was 1650 mg/kg.

As to `C=CCOC(=O)c1ccc(C(=O)OCC=C)c(C(=O)OCC=C)c1`, the LD50 was 2400 mg/kg.

Consider `CN(C)CCN(Cc1cccs1)c1ccccn1`, for which the LD50 was 200 mg/kg.

Take `COc1cc(-c2ccc(N)c(OC)c2)ccc1N`: the LD50 was 1920 mg/kg.

Regarding `O=C(c1ccccc1)c1ccc(O)cc1O`, the LD50 was 8600 mg/kg.

On to `N#CCC[P+](CCC#N)(CCC#N)CC[P+](CCC#N)(CCC#N)CCC#N`, for which the LD50 was 10000 mg/kg.

Turning to `Brc1cc2c(cc1Br)Oc1cc(Br)c(Br)cc1O2`, the LD50 was 0.1 mg/kg.

`O=c1[nH]nc2n1-c1cc([N+](=O)[O-])cc([N+](=O)[O-])c1OC2`: the LD50 is 3690 mg/kg.

With `CC(C)(C)C(=O)C(Oc1ccc(Cl)cc1)n1ccnc1` (centres undefined), the median lethal dose (LD50) is 400 mg/kg.

Consider `CCCCCCCCCCCCOCCO`, for which the LD50 was 6550 mg/kg.

`CCSc1nc(NC(C)C)nc(NC(C)C)n1`: the LD50 was 3900 mg/kg.

Consider `Nc1cc(Cl)ccc1Cl`, for which the LD50 was 1600 mg/kg.

As to `CCCCC(CC)CNCC(C)(N)CNCC(CC)CCCC` (centres undefined), the LD50 is 800 mg/kg.

Consider `CN(Sc1cc(Cl)ccc1Cl)C(=O)Oc1cccc2c1OC(C)(C)C2`, for which the LD50 was 25 mg/kg.

Regarding `CC[C@@H](CO)NC(=O)[C@@H]1C=C2c3cccc4c3c(cn4C)C[C@H]2N(C)C1`, the LD50 was 2100 mg/kg.

As to `CCCCOc1c(Cl)c(Cl)c(Cl)c(Cl)c1Cl`, the LD50 is 600 mg/kg.

Take `Nc1nc2cccc(Cl)c2o1`: the LD50 was 410 mg/kg.

With `CCCCCCCCOP(=O)(O)OCCC(Cl)Cl`, the LD50 is 10300 mg/kg.

For `COC(=O)c1cc(C(=O)OC)cc([N+](=O)[O-])c1`, the median lethal dose (LD50) was 10000 mg/kg.

`Cc1c(I)c(=O)n(-c2ccccc2)n1C`: the LD50 was 2060 mg/kg.

For `CCOP(=S)(OCC)SCSC(=S)N(C)C`, the LD50 was 150 mg/kg.

As for `CC(=O)OC1(C)CC(C)C(=O)C(C(O)CC2CC(=O)NC(=O)C2)C1` (centres undefined), the LD50 was 0.158 mg/kg.

Consider `Cc1ncc([N+](=O)[O-])n1CCO`, for which the LD50 was 3000 mg/kg.

`Fc1c(Cl)c(Br)c2[nH]c(C(F)(F)F)nc2c1Cl`: the LD50 was 6.26 mg/kg.

Consider `Cc1c(C)c2c(c(C)c1O)CCC(C)(C(=O)O)O2` (centres undefined), for which the LD50 is 4300 mg/kg.

`CC(=O)CCCCn1c(=O)c2c(ncn2C)n(C)c1=O`: the 50% lethal dose (LD50) is 1170 mg/kg.

As for `CN1CCOC(c2ccccc2)c2ccccc2C1` (centres undefined), the LD50 was 80 mg/kg.

As for `CN1C(C(=O)Nc2ccccn2)=C(OC(=O)C23CC4CC(CC(C4)C2)C3)c2sc(Cl)cc2S1(=O)=O`, the LD50 is 100 mg/kg.

In the case of `CCN(CC)CCOc1ccc(C2=C(c3ccccc3)Cc3cc(OC)ccc32)cc1`, the LD50 is 547 mg/kg.

For the compound `CC/C(=C(\c1ccccc1)c1ccc(OCCN(C)C)cc1)c1ccccc1`, the LD50 is 4100 mg/kg.

On to `O=C(O)CCCCCCI`, for which the LD50 is 2240 mg/kg.

`CC(=O)Nc1ccc([N+](=O)[O-])c(Cl)n1`: the LD50 is 1940 mg/kg.

Regarding `CCCCCC1=CCCC1=O`, the LD50 is 2200 mg/kg.

With `COc1ccc(CNc2cc(C(O)CNC(C)(C)C)ccc2O)cc1` (centres undefined), the LD50 is 1850 mg/kg.

`CN(C)C(=O)C(CC[N@+]1([O-])CC[C@@](O)(c2ccc(Cl)cc2)CC1)(c1ccccc1)c1ccccc1`: the LD50 is 172 mg/kg.

For `S=C=Nc1ccc(Br)cc1`, the LD50 is 400 mg/kg.

On to `O=S1(=O)CC(Cl)(Cl)C(Cl)(Cl)C1`, for which the LD50 was 87 mg/kg.

For `O=C1C=CC[C@@H]2[C@H]3CCCN4CCC[C@@H](CN12)[C@@H]34`, the LD50 is 196 mg/kg.

For the compound `CC(=O)c1ccc(C)cc1`, the LD50 is 1400 mg/kg.

As for `c1ccc(-c2ccc(CCOc3ncnc4ccccc34)cc2)cc1`, the LD50 is 1150 mg/kg.

A word on the LD50: it is the dose at which mortality reaches 50%.
